Laboratory results as given in PubChem BioAssay AID248 (DTP/NCI, 2004).
Several values for one entry are separate records, joined by “and”; a condition that tells them apart may be missing. Equal entries are not always repeated. Inconclusive results and toxic doses are left out. Cut-off read from the data, not from the text of the source: active = T/C of 150% or more; inactive = T/C below 125%.

Tested on: L1210 leukemia ip in BDF1 mice, survival T/C
Assay: NCI In Vivo Anticancer Drug Screen. Data for tumor model L1210 Leukemia (intraperitoneal) in B6D2F1 (BDF1) mice
Conditions: endpoint: mean survival time, higher = longer survival
Summary of the method: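 Transplantable tumor model; survival measured in treated vs vehicle control mice. Value = treated/control.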

[1] = dose: 100.0 mg/kg/injection, schedule: Q01DX009 (ip), vehicle: Klucel (hydroxypropylcellulose) (HPC)
[2] = dose: 100.0 mg/kg/injection, schedule: Q04DX003 (ip), vehicle: saline
[3] = dose: 200.0 mg/kg/injection, schedule: Q01DX009 (ip), vehicle: Klucel (hydroxypropylcellulose) (HPC)
[4] = dose: 200.0 mg/kg/injection, schedule: Q04DX003 (ip), vehicle: saline
[5] = dose: 400.0 mg/kg/injection, schedule: Q01DX009 (ip), vehicle: Klucel (hydroxypropylcellulose) (HPC)
[6] = dose: 400.0 mg/kg/injection, schedule: Q04DX003 (ip), vehicle: saline
[7] = dose: 75.0 mg/kg/injection, schedule: Q01DX001 (ip), vehicle: saline
[8] = dose: 150.0 mg/kg/injection, schedule: Q01DX001 (ip), vehicle: saline
[9] = dose: 300.0 mg/kg/injection, schedule: Q01DX001 (ip), vehicle: saline
[10] = dose: 100.0 mg/kg/injection, schedule: Q04DX002 (ip), vehicle: Klucel (hydroxypropylcellulose) (HPC)
[11] = dose: 200.0 mg/kg/injection, schedule: Q04DX002 (ip), vehicle: Klucel (hydroxypropylcellulose) (HPC)
[12] = dose: 400.0 mg/kg/injection, schedule: Q04DX002 (ip), vehicle: Klucel (hydroxypropylcellulose) (HPC)
[13] = dose: 100.0 mg/kg/injection, schedule: Q01DX001 (ip), vehicle: carboxymethylcellulose (CMC)
[14] = dose: 100.0 mg/kg/injection, schedule: Q04DX003 (ip), vehicle: saline with Tween-80
[15] = dose: 200.0 mg/kg/injection, schedule: Q04DX003 (ip), vehicle: saline with Tween-80
[16] = dose: 400.0 mg/kg/injection, schedule: Q04DX003 (ip), vehicle: saline with Tween-80
[17] = dose: 50.0 mg/kg/injection, schedule: Q01DX009 (ip), vehicle: Klucel (hydroxypropylcellulose) (HPC)

Measured: T/C

O=C(O)CCCCCNC(=O)c1ccccc1
inactive: [1] 92 % of control | [2] 114 % of control | [3] 93 % of control | [4] 100 % of control | [5] 102 % of control | [6] 103 % of control

CCC1(C2=CCCCC2)C(=O)NC(=S)NC1=O
inactive: [7] 102 % of control | [8] 106 % of control | [9] 104 % of control

CCOC(=O)Nc1ccccn1
inactive: [10] 100 % of control | [11] 103 % of control | [12] 92 % of control

O=c1[nH]cnc2nc(-c3cccc([N+](=O)[O-])c3)[nH]c12
inactive: dose: 100.0 mg/kg/injection, schedule: Q04DX003 (ip), vehicle: gum acacia 102 % of control | dose: 200.0 mg/kg/injection, schedule: Q04DX003 (ip), vehicle: gum acacia 92 % of control | dose: 400.0 mg/kg/injection, schedule: Q04DX003 (ip), vehicle: gum acacia 96 % of control

Oc1[nH]c(=S)sc1C1=c2ccccc2=NCC1
inactive: dose: 44.4 mg/kg/injection, schedule: Q01DX001 (ip), vehicle: carboxymethylcellulose (CMC) 93 % of control and 94 % of control | dose: 66.7 mg/kg/injection, schedule: Q01DX001 (ip), vehicle: carboxymethylcellulose (CMC) 96 % of control and 106 % of control | [13] 98 % of control and 107 % of control | dose: 150.0 mg/kg/injection, schedule: Q01DX001 (ip), vehicle: carboxymethylcellulose (CMC) 98 % of control and 100 % of control

COc1ccccc1-n1c(O)c(N=Nc2ccccc2)c(=O)n(-c2ccc(Br)cc2)c1=S
inactive: [14] 106 % of control | [15] 100 % of control | [16] 94 % of control

c1cc[c]([Pb]([S]c2ccccn2)([c]2ccccc2)[c]2ccccc2)cc1
inactive: dose: 0.78 mg/kg/injection, schedule: Q01DX009 (ip), vehicle: Klucel (hydroxypropylcellulose) (HPC) 96 % of control | dose: 1.56 mg/kg/injection, schedule: Q01DX009 (ip), vehicle: Klucel (hydroxypropylcellulose) (HPC) 94 % of control | dose: 3.12 mg/kg/injection, schedule: Q01DX009 (ip), vehicle: Klucel (hydroxypropylcellulose) (HPC) 106 % of control and 89 % of control | dose: 25.0 mg/kg/injection, schedule: Q04DX002 (ip), vehicle: Klucel (hydroxypropylcellulose) (HPC) 100 % of control | dose: 50.0 mg/kg/injection, schedule: Q04DX002 (ip), vehicle: Klucel (hydroxypropylcellulose) (HPC) 88 % of control

O=C(O)CCCCCC(=O)c1ccccc1
inactive: [10] 100 % of control | [11] 118 % of control | [12] 107 % of control

O=C(O)c1nnc(C(=O)O)nn1
inactive: dose: 50.0 mg/kg/injection, schedule: Q01DX009 (ip), vehicle: saline 96 % of control | dose: 100.0 mg/kg/injection, schedule: Q01DX009 (ip), vehicle: saline 102 % of control and 104 % of control | [2] 100 % of control | dose: 200.0 mg/kg/injection, schedule: Q01DX009 (ip), vehicle: saline 100 % of control and 101 % of control | [4] 103 % of control | dose: 400.0 mg/kg/injection, schedule: Q01DX009 (ip), vehicle: saline 96 % of control | [6] 94 % of control

CCCC[N+](CCCC)=c1cc(-c2ccc(Cl)cc2)ss1
inactive: dose: 100.0 mg/kg/injection, schedule: Q04DX003 (ip), vehicle: water 95 % of control | dose: 200.0 mg/kg/injection, schedule: Q04DX003 (ip), vehicle: water 96 % of control

Cc1cc(C)n(/N=C/c2cccc(Cl)c2)c(=O)c1C#N
inactive: dose: 100.0 mg/kg/injection, schedule: Q01DX009 (ip), vehicle: saline with Tween-80 88 % of control | [14] 95 % of control | dose: 200.0 mg/kg/injection, schedule: Q01DX009 (ip), vehicle: saline with Tween-80 87 % of control | [15] 90 % of control | dose: 400.0 mg/kg/injection, schedule: Q01DX009 (ip), vehicle: saline with Tween-80 92 % of control | [16] 90 % of control

CCN(CC)c1ccc(N=Nc2ncn[nH]2)c(O)c1
inactive: dose: 100.0 mg/kg/injection, schedule: Q01DX001 (ip), vehicle: saline with Tween-80 100 % of control | dose: 200.0 mg/kg/injection, schedule: Q01DX001 (ip), vehicle: saline with Tween-80 98 % of control | dose: 400.0 mg/kg/injection, schedule: Q01DX001 (ip), vehicle: saline with Tween-80 88 % of control

O=C(Nc1cccc(C(F)(F)F)c1)Nc1ncccn1
inactive: [17] 90 % of control | [1] 94 % of control and 86 % of control | [5] 89 % of control

C=CS(=O)CCCCCCC (stereo unspecified)
inactive: dose: 12.5 mg/kg/injection, schedule: Q04DX002 (ip), vehicle: saline with Tween-80 106 % of control | dose: 25.0 mg/kg/injection, schedule: Q04DX002 (ip), vehicle: saline with Tween-80 103 % of control | dose: 50.0 mg/kg/injection, schedule: Q04DX002 (ip), vehicle: saline with Tween-80 109 % of control

Cc1c(Cl)cccc1N=C=S
inactive: [7] 95 % of control | [8] 97 % of control | [9] 100 % of control

O=Cc1ccccc1B(O)O
inactive: [17] 96 % of control and 101 % of control | [1] 97 % of control and 100 % of control | dose: 100.0 mg/kg/injection, schedule: Q04DX003 (ip), vehicle: Klucel (hydroxypropylcellulose) (HPC) 98 % of control | [3] 105 % of control and 124 % of control | dose: 200.0 mg/kg/injection, schedule: Q04DX003 (ip), vehicle: Klucel (hydroxypropylcellulose) (HPC) 86 % of control

CC(=O)NCC1CCCO1 (stereo unspecified)
inactive: dose: 75.0 mg/kg/injection, schedule: Q01DX009 (ip), vehicle: saline 112 % of control | [2] 105 % of control | dose: 150.0 mg/kg/injection, schedule: Q01DX009 (ip), vehicle: saline 103 % of control | [4] 108 % of control | dose: 300.0 mg/kg/injection, schedule: Q01DX009 (ip), vehicle: saline 103 % of control | [6] 106 % of control

COc1ccc(OC)c(NC(=O)Nc2cccc(C(F)(F)F)c2)c1
inactive: dose: 25.0 mg/kg/injection, schedule: Q01DX009 (ip), vehicle: carboxymethylcellulose (CMC) 97 % of control and 87 % of control | dose: 50.0 mg/kg/injection, schedule: Q01DX009 (ip), vehicle: carboxymethylcellulose (CMC) 112 % of control and 88 % of control | [13] 103 % of control and 107 % of control | dose: 100.0 mg/kg/injection, schedule: Q01DX009 (ip), vehicle: carboxymethylcellulose (CMC) 87 % of control | dose: 100.0 mg/kg/injection, schedule: Q04DX002 (ip), vehicle: carboxymethylcellulose (CMC) 95 % of control and 89 % of control | dose: 100.0 mg/kg/injection, schedule: Q04DX003 (ip), vehicle: carboxymethylcellulose (CMC) 103 % of control and 87 % of control | dose: 200.0 mg/kg/injection, schedule: Q01DX001 (ip), vehicle: carboxymethylcellulose (CMC) 96 % of control and 89 % of control | dose: 200.0 mg/kg/injection, schedule: Q04DX002 (ip), vehicle: carboxymethylcellulose (CMC) 92 % of control and 99 % of control | dose: 200.0 mg/kg/injection, schedule: Q04DX003 (ip), vehicle: carboxymethylcellulose (CMC) 93 % of control and 87 % of control | dose: 400.0 mg/kg/injection, schedule: Q01DX001 (ip), vehicle: carboxymethylcellulose (CMC) 94 % of control and 100 % of control | dose: 400.0 mg/kg/injection, schedule: Q01DX009 (ip), vehicle: carboxymethylcellulose (CMC) 86 % of control | dose: 400.0 mg/kg/injection, schedule: Q04DX002 (ip), vehicle: carboxymethylcellulose (CMC) 86 % of control | dose: 400.0 mg/kg/injection, schedule: Q04DX003 (ip), vehicle: carboxymethylcellulose (CMC) 90 % of control
